Activity calls are given as the source filed them. How the calls were made is not given here.
System: CCRIS mutagenicity, Ames/micronucleus/aberration tests
Assay: CCRIS mutagenicity studies

With CS(C)=O the mutagenic call (Test System: AMES SALMONELLA TYPHIMURIUM, Strain/Indicator: TA1535, Metabolic Activation: RAT, LIVER, S-9, AROCLOR 1254 (10 OR 30%), Method: PREINCUBATION) was “inactive; negative”, the mutagenic call (Test System: AMES SALMONELLA TYPHIMURIUM, Strain/Indicator: TA1535, Metabolic Activation: RAT, LIVER, S-9, PHENOBARBITAL AND 5,6-BENZOFLAVONE, Method: PREINCUBATION (20 MIN)) was “inactive; negative” and the mutagenic call (Test System: AMES SALMONELLA TYPHIMURIUM, Strain/Indicator: TA1537, Metabolic Activation: HAMSTER, LIVER, S-9, AROCLOR 1254 (30%), Method: PREINCUBATION) was “inactive; negative”. For the same compound, the mutagenic call (Test System: AMES SALMONELLA TYPHIMURIUM, Strain/Indicator: TA1537, Metabolic Activation: NONE, Method: FLUCTUATION (MICROTITER)) was “inactive; negative”, the mutagenic call (Test System: AMES SALMONELLA TYPHIMURIUM, Strain/Indicator: TA1537, Metabolic Activation: NONE, Method: PREINCUBATION) was “inactive; negative” and the mutagenic call (Test System: AMES SALMONELLA TYPHIMURIUM, Strain/Indicator: TA1537, Metabolic Activation: NONE, Method: PREINCUBATION (20 MIN)) was “active; positive”. For the same compound, the mutagenic call (Test System: AMES SALMONELLA TYPHIMURIUM, Strain/Indicator: TA1537, Metabolic Activation: NONE, Method: PREINCUBATION (20 OR 60 MIN)) was “active; positive”, the mutagenic call (Test System: AMES SALMONELLA TYPHIMURIUM, Strain/Indicator: TA1537, Metabolic Activation: NONE, Method: STANDARD PLATE) was “inactive; negative” and the mutagenic call (Test System: AMES SALMONELLA TYPHIMURIUM, Strain/Indicator: TA1537, Metabolic Activation: RAT LIVER S-9, AROCLOR 1254, Method: FLUCTUATION (MICROTITER)) was “inactive; negative”. The mutagenic call (Test System: AMES SALMONELLA TYPHIMURIUM, Strain/Indicator: TA1537, Metabolic Activation: RAT, LIVER, S-9, AROCLOR 1254 (30%), Method: PREINCUBATION) was “inactive; negative”, the mutagenic call (Test System: AMES SALMONELLA TYPHIMURIUM, Strain/Indicator: TA1537, Metabolic Activation: RAT, LIVER, S-9, PHENOBARBITAL AND 5,6-BENZOFLAVONE, Method: PREINCUBATION (20 MIN)) was “active; positive” and the mutagenic call (Test System: AMES SALMONELLA TYPHIMURIUM, Strain/Indicator: TA1538, Metabolic Activation: NONE, Method: PREINCUBATION (20 MIN)) was “inactive; negative”. The mutagenic call (Test System: AMES SALMONELLA TYPHIMURIUM, Strain/Indicator: TA1538, Metabolic Activation: RAT, LIVER, S-9, PHENOBARBITAL AND 5,6-BENZOFLAVONE, Method: PREINCUBATION (20 MIN)) was “inactive; negative”, the mutagenic call (Test System: AMES SALMONELLA TYPHIMURIUM, Strain/Indicator: TA2637, Metabolic Activation: NONE, Method: PREINCUBATION (20 MIN)) was “active; positive” and the mutagenic call (Test System: AMES SALMONELLA TYPHIMURIUM, Strain/Indicator: TA2637, Metabolic Activation: RAT, LIVER, S-9, PHENOBARBITAL AND 5,6-BENZOFLAVONE, Method: PREINCUBATION (20 MIN)) was “active; positive”. The mutagenic call (Test System: AMES SALMONELLA TYPHIMURIUM, Strain/Indicator: TA7001, Metabolic Activation: NONE, Method: FLUCTUATION (MICROTITER)) was “inactive; negative”, the mutagenic call (Test System: AMES SALMONELLA TYPHIMURIUM, Strain/Indicator: TA7001, Metabolic Activation: RAT LIVER S-9, AROCLOR 1254, Method: FLUCTUATION (MICROTITER)) was “inactive; negative” and the mutagenic call (Test System: AMES SALMONELLA TYPHIMURIUM, Strain/Indicator: TA7002, Metabolic Activation: NONE, Method: FLUCTUATION (MICROTITER)) was “inactive; negative”. For the same compound, the mutagenic call (Test System: AMES SALMONELLA TYPHIMURIUM, Strain/Indicator: TA7002, Metabolic Activation: RAT LIVER S-9, AROCLOR 1254, Method: FLUCTUATION (MICROTITER)) was “inactive; negative”, the mutagenic call (Test System: AMES SALMONELLA TYPHIMURIUM, Strain/Indicator: TA7003, Metabolic Activation: NONE, Method: FLUCTUATION (MICROTITER)) was “inactive; negative” and the mutagenic call (Test System: AMES SALMONELLA TYPHIMURIUM, Strain/Indicator: TA7003, Metabolic Activation: RAT LIVER S-9, AROCLOR 1254, Method: FLUCTUATION (MICROTITER)) was “inactive; negative”. The mutagenic call (Test System: AMES SALMONELLA TYPHIMURIUM, Strain/Indicator: TA7004, Metabolic Activation: NONE, Method: FLUCTUATION (MICROTITER)) was “inactive; negative”, the mutagenic call (Test System: AMES SALMONELLA TYPHIMURIUM, Strain/Indicator: TA7004, Metabolic Activation: RAT LIVER S-9, AROCLOR 1254, Method: FLUCTUATION (MICROTITER)) was “inactive; negative” and the mutagenic call (Test System: AMES SALMONELLA TYPHIMURIUM, Strain/Indicator: TA7005, Metabolic Activation: NONE, Method: FLUCTUATION (MICROTITER)) was “inactive; negative”. For the same compound, the mutagenic call (Test System: AMES SALMONELLA TYPHIMURIUM, Strain/Indicator: TA7005, Metabolic Activation: RAT LIVER S-9, AROCLOR 1254, Method: FLUCTUATION (MICROTITER)) was “inactive; negative”, the mutagenic call (Test System: AMES SALMONELLA TYPHIMURIUM, Strain/Indicator: TA7006, Metabolic Activation: NONE, Method: FLUCTUATION (MICROTITER)) was “inactive; negative” and the mutagenic call (Test System: AMES SALMONELLA TYPHIMURIUM, Strain/Indicator: TA7006, Metabolic Activation: RAT LIVER S-9, AROCLOR 1254, Method: FLUCTUATION (MICROTITER)) was “inactive; negative”. The mutagenic call (Test System: E. COLI, Strain/Indicator: WP2, Metabolic Activation: NONE, Method: PREINCUBATION (20 OR 60 MIN)) was “inactive; negative”, the mutagenic call (Test System: E. COLI, Strain/Indicator: WP2, Metabolic Activation: NONE, Method: STANDARD PLATE) was “inactive; negative” and the mutagenic call (Test System: E. COLI, Strain/Indicator: WP2 UVRA, Metabolic Activation: NONE, Method: PREINCUBATION (20 MIN)) was “active; positive”. For the same compound, the mutagenic call (Test System: E. COLI, Strain/Indicator: WP2 UVRA, Metabolic Activation: NONE, Method: PREINCUBATION (60 MIN)) was “inactive; negative”, the mutagenic call (Test System: E. COLI, Strain/Indicator: WP2 UVRA, Metabolic Activation: NONE, Method: STANDARD PLATE) was “active; positive” and the mutagenic call (Test System: MOUSE LYMPHOMA, Strain/Indicator: L5178Y (TK+/TK-), Metabolic Activation: NONE, Method: SUSPENSION/PLATE) was “active; positive”.
